Measured values published in patent US8202879B2, “Quinazoline derivatives having tyrosine kinase inhibitory activity” (Shionogi & Co., Ltd., priority 2005, dated 2012).

Assays:
BT-474 = experiment: In vitro cell proliferation inhibition, WST assay; type: cell-based, human; conditions: Homo sapiens, BT-474, 72 h, BT-474 cells, cultured for 3 days, read-out: BT-474 (nM) proliferation inhibitory activity (IC50 value)
Procedure: Test of In Vitro Cell Proliferation Inhibition of Test Compound
As a human-derived cancer cell strain, BT-474 was used. Cells were all cultured in a 37° C., 5% CO2 incubator in a medium in which 10% bovine fetal serum (ICN) and 50 units ml penicillin/60 μg/ml streptomycin solution (GIBCO) were added to Dulbecco's Modified Essential Medium (DMEM, Nacalai Tesque, Inc).

HER2 = molecular target: T1, HER2 (Homo sapiens, UniProt P04626); experiment: Enzyme inhibitory activity on HER2 (time resolution fluorescence, biotinylated poly-Glu-Tyr substrate); type: biochemical; conditions: enzyme reaction at room temperature for 60 minutes
T1 construct: purchased Carna Biosciences, Inc; host or cells: insect cell expression system
Outline: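 Insect-cell-expressed HER2 (1000 ng/ml working stock) with biotinylated poly-Glu-Tyr (4:1; 3.125 μg/ml stock) and ATP (290 μM solution) in TBS with MgCl2, MnCl2, Na3VO4 and BSA, 60 min at room temperature. 10-point 4-fold dilutions from a 1 mM top solution. Phosphotyrosine detected by TR-FRET with Eu-antibody and streptavidin-XL.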

EGFR = molecular target: T2, EGFR (Homo sapiens, UniProt P00533); experiment: Enzyme inhibitory activity on EGFR (time resolution fluorescence, biotinylated poly-Glu-Tyr substrate); type: biochemical; conditions: enzyme reaction at room temperature for 60 minutes
T2 construct: purchased Carna Biosciences, Inc; host or cells: insect cell expression system
Outline: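 Insect-cell-expressed EGFR phosphorylated biotinylated poly-Glu-Tyr (4:1) for 60 min at room temperature in TBS with MgCl2, MnCl2, Na3VO4 and BSA. Enzyme 250 ng/ml, substrate 3.125 μg/ml and ATP 125 μM as working solutions. EDTA stop; Eu anti-phosphotyrosine/streptavidin-XL time-resolved fluorescence read; 10-point 4-fold dilutions.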

T1 sequence (P04626 23-1255): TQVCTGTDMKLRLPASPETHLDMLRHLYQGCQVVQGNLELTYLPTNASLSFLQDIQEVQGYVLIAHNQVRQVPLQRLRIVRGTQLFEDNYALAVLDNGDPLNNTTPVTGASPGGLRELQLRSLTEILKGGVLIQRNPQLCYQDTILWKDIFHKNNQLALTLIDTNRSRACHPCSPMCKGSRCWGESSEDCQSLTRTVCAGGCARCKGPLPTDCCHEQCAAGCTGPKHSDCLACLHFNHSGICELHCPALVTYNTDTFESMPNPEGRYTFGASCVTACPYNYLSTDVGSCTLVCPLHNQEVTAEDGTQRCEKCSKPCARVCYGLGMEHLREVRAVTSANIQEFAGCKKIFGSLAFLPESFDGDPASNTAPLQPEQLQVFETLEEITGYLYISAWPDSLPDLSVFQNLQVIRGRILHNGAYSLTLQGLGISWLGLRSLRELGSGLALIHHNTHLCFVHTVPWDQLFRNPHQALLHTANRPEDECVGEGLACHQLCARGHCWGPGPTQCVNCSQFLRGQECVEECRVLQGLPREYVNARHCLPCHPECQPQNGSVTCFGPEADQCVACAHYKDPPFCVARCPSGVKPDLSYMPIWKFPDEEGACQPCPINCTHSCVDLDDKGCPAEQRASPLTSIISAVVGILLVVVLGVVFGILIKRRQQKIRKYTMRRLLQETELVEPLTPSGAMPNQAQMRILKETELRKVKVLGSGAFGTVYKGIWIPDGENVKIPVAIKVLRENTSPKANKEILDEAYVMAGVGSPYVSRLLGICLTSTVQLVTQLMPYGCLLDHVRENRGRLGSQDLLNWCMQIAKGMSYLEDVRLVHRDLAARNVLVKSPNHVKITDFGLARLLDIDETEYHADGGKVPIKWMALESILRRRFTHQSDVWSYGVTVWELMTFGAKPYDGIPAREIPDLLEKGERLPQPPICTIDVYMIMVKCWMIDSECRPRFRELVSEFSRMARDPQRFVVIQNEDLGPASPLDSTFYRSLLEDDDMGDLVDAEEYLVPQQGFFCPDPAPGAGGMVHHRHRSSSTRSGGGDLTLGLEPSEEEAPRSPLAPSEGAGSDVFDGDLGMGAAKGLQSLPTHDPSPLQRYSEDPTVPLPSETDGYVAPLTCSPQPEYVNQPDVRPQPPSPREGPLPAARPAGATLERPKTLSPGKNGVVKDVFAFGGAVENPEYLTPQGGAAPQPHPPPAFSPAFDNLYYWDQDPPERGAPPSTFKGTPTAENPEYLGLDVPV
T2 sequence (P00533 25-1210): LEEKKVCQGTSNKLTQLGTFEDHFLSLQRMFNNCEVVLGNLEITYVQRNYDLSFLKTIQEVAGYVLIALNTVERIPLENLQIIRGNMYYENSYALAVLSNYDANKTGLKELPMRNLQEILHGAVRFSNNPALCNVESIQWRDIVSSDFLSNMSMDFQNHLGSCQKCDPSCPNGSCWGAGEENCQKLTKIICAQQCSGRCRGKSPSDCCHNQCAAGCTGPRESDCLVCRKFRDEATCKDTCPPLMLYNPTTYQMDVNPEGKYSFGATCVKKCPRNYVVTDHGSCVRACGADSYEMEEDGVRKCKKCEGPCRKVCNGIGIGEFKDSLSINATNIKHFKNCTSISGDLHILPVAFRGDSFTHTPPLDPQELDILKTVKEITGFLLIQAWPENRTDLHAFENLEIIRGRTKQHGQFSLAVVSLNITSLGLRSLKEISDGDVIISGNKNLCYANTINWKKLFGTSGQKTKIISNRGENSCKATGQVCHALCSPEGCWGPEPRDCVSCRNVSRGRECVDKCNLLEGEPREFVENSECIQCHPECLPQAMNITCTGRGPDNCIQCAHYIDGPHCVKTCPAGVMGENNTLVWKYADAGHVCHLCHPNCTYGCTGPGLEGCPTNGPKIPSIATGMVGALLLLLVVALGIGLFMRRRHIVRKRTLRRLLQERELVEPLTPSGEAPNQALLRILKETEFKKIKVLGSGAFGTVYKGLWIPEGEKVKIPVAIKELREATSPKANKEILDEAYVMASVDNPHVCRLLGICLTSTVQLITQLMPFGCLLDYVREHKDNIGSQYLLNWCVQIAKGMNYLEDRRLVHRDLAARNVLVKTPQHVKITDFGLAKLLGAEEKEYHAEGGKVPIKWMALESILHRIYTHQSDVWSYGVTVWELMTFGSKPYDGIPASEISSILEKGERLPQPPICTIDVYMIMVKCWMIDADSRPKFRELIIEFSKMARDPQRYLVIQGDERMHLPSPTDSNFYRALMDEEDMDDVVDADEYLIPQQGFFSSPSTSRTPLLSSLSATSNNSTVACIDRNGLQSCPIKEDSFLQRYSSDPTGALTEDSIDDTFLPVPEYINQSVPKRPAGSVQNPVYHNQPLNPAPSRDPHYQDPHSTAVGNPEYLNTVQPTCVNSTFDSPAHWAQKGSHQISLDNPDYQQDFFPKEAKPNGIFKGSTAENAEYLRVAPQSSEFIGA

| Structure (SMILES) | IC50 (BT-474) | IC50 (HER2) | IC50 (EGFR) |
| --- | --- | --- | --- |
| CC#C/C(=N\OCCN1CC[C@@H](OC(N)=O)C1)c1ccc2ncnc(Nc3ccc(OCc4ccccn4)c(Cl)c3)c2c1 [VIII-151] | 47 nM | 19 nM | 20 nM |
| CC#C/C(=N\OC[C@@H]1C[C@H](O)CN1)c1ccc2ncnc(Nc3ccc(OCc4ccccn4)c(Cl)c3)c2c1 [VIII-152] | 22 nM | 4.3 nM | 2.4 nM |
| CC#C/C(=N\OC[C@@H]1CCCN1)c1ccc2ncnc(Nc3ccc(OCc4ccccn4)c(Cl)c3)c2c1 [VIII-153] | 21 nM | 11 nM | 10 nM |
| CC#C/C(=N\OC[C@@H]1CCCN1C)c1ccc2ncnc(Nc3ccc(OCc4ccccn4)c(Cl)c3)c2c1 [VIII-154] | 31 nM | 9 nM | 9.5 nM |
| CC#C/C(=N\O[C@@H]1CN[C@H](CO)C1)c1ccc2ncnc(Nc3ccc(OCc4ccccn4)c(Cl)c3)c2c1 [VIII-155] | 28 nM | 8 nM | 10 nM |
| CC#C/C(=N\OC[C@@H]1C[C@@H](O)CN1)c1ccc2ncnc(Nc3ccc(OCc4ccccn4)c(Cl)c3)c2c1 [VIII-156] | 24 nM | 6.4 nM | 7 nM |
| CC#C/C(=N\OC[C@H]1CCCN1)c1ccc2ncnc(Nc3ccc(OCc4ccccn4)c(Cl)c3)c2c1 [VIII-157] | 25 nM | 4 nM | 4.1 nM |
| CC#C/C(=N\OC[C@H]1CCCN1C)c1ccc2ncnc(Nc3ccc(OCc4ccccn4)c(Cl)c3)c2c1 [VIII-158] | 27 nM | 3.8 nM | 3.8 nM |
| CC#C/C(=N\OC[C@H]1CCCN1CCO)c1ccc2ncnc(Nc3ccc(OCc4ccccn4)c(Cl)c3)c2c1 [VIII-159] | 15 nM | 19 nM | 16 nM |
| CC#C/C(=N\OC[C@@H]1CCCN1CCO)c1ccc2ncnc(Nc3ccc(OCc4ccccn4)c(Cl)c3)c2c1 [VIII-160] | 47 nM | 18 nM | 17 nM |
| CC#C/C(=N\O[C@H]1CN[C@H](CO)C1)c1ccc2ncnc(Nc3ccc(OCc4ccccn4)c(Cl)c3)c2c1 [VIII-161] | 49 nM | 15 nM | 14 nM |
| CC#C/C(=N\OCCN1CCS(=O)(=O)CC1)c1ccc2ncnc(Nc3ccc(OCc4ccccn4)c(Cl)c3)c2c1 [VIII-162] | 42 nM | 62 nM | 51 nM |
| CC#C/C(=N\OCCN1CCOCC1)c1ccc2ncnc(Nc3ccc(OCc4ccccn4)c(Cl)c3)c2c1 [VIII-163] | 38 nM | 27 nM | 23 nM |
| CC#C/C(=N\OCCN1CCN(C)CC1)c1ccc2ncnc(Nc3ccc(OCc4ccccn4)c(Cl)c3)c2c1 [VIII-164] | 31 nM | 7.6 nM | 7.3 nM |
| CC#C/C(=N\OCCN1CCC(O)CC1)c1ccc2ncnc(Nc3ccc(OCc4ccccn4)c(Cl)c3)c2c1 [VIII-165] | 23 nM | 11 nM | 11 nM |
| CC#C/C(=N\OC[C@H]1COCCN1)c1ccc2ncnc(Nc3ccc(OCc4ccccn4)c(Cl)c3)c2c1 [VIII-167] | 21 nM | 4.2 nM | 4.8 nM |
| CC#C/C(=N\OC[C@@H]1CNCCO1)c1ccc2ncnc(Nc3ccc(OCc4ccccn4)c(Cl)c3)c2c1 [VIII-168] | 44 nM | 9 nM | 8 nM |
| CC#C/C(=N\OC[C@@H]1COCCN1)c1ccc2ncnc(Nc3ccc(OCc4ccccn4)c(Cl)c3)c2c1 [VIII-169] | 35 nM | 15 nM | 13 nM |
| CC#CC(=NOCC1CNCCN1)c1ccc2ncnc(Nc3ccc(OCc4ccccn4)c(Cl)c3)c2c1 (stereo not drawn) [VIII-170] | 19 nM | 5.6 nM | 5 nM |
| CC#C/C(=N\OC[C@H]1CNCC(=O)N1)c1ccc2ncnc(Nc3ccc(OCc4ccccn4)c(Cl)c3)c2c1 [VIII-171] | 52 nM | 11.7 nM | 9.9 nM |
| CC#CC(=NOCC1CN(C)CCN1C)c1ccc2ncnc(Nc3ccc(OCc4ccccn4)c(Cl)c3)c2c1 (stereo not drawn) [VIII-172] | 70 nM | 16 nM | 14 nM |
| CC#C/C(=N\OC[C@H]1CNCCO1)c1ccc2ncnc(Nc3ccc(OCc4ccccn4)c(Cl)c3)c2c1 [VIII-173] | 40 nM | 3.9 nM | 4.8 nM |

Second part, the molecule after the results:

| IC50 (BT-474) | IC50 (HER2) | IC50 (EGFR) | Structure (SMILES) |
| --- | --- | --- | --- |
| 14 nM | 28 nM | 25 nM | CC#C/C(=N\OC[C@H]1CN(CCO)CCN1)c1ccc2ncnc(Nc3ccc(OCc4ccccn4)c(Cl)c3)c2c1 [VIII-174] |
| 26 nM | 26 nM | 23 nM | CC#C/C(=N\OC[C@H]1CN(C)CCN1)c1ccc2ncnc(Nc3ccc(OCc4ccccn4)c(Cl)c3)c2c1 [VIII-176] |
| 79 nM | 5.8 nM | 7.3 nM | CC#C/C(=N\OC[C@H]1CNC[C@@H](C)O1)c1ccc2ncnc(Nc3ccc(OCc4ccccn4)c(Cl)c3)c2c1 [VIII-177] |
| 36 nM | 8.2 nM | 8.1 nM | CC#C/C(=N\OC[C@H]1CNC[C@H](C)O1)c1ccc2ncnc(Nc3ccc(OCc4ccccn4)c(Cl)c3)c2c1 [VIII-178] |
| 48 nM | 5 nM | 4.6 nM | CC#C/C(=N\OC[C@@H]1CNCC(=O)N1)c1ccc2ncnc(Nc3ccc(OCc4ccccn4)c(Cl)c3)c2c1 [VIII-179] |
| 5 nM | 6 nM | 7.8 nM | CNCCO/N=C(\C#CCOC)c1ccc2ncnc(Nc3ccc(OCc4ccccn4)c(Cl)c3)c2c1 [VIII-180] |
| 20 nM | 7.3 nM | 4.7 nM | CC#C/C(=N\OCCNC)c1ccc2ncnc(Nc3ccc(OCc4ccccn4)c(Cl)c3)c2c1 [VIII-182] |
| 10 nM | 8.3 nM | 7.1 nM | CC#C/C(=N\OCCNC)c1ccc2ncnc(Nc3ccc4c(cnn4Cc4cccc(F)c4)c3)c2c1 [VIII-183] |
| 9 nM | 7 nM | 10 nM | CC#C/C(=N\OCCNCCNC(C)=O)c1ccc2ncnc(Nc3ccc4c(cnn4Cc4cccc(F)c4)c3)c2c1 [VIII-184] |
| 12 nM | 12.5 nM | 6.8 nM | CC#C/C(=N\OCCNCCNS(C)(=O)=O)c1ccc2ncnc(Nc3ccc4c(cnn4Cc4cccc(F)c4)c3)c2c1 [VIII-185] |
| 29 nM | 26 nM | 19 nM | CC#C/C(=N\OCCNCCN(C)S(C)(=O)=O)c1ccc2ncnc(Nc3ccc4c(cnn4Cc4cccc(F)c4)c3)c2c1 [VIII-186] |
| 24 nM | 9 nM | 10 nM | CC#C/C(=N\OCCNCCOC(N)=O)c1ccc2ncnc(Nc3ccc4c(cnn4Cc4cccc(F)c4)c3)c2c1 [VIII-187] |
| 40 nM | 30 nM | 20 nM | CC#C/C(=N\OCCNC[C@H]1CCCO1)c1ccc2ncnc(Nc3ccc4c(cnn4Cc4cccc(F)c4)c3)c2c1 [VIII-188] |
| 25 nM | 27 nM | 17 nM | CC#C/C(=N\OCCNC[C@@H]1CCCO1)c1ccc2ncnc(Nc3ccc4c(cnn4Cc4cccc(F)c4)c3)c2c1 [VIII-189] |
| 14 nM | 11.1 nM | 8.9 nM | CC#C/C(=N\OCCNC[C@H]1CCC(=O)N1)c1ccc2ncnc(Nc3ccc4c(cnn4Cc4cccc(F)c4)c3)c2c1 [VIII-190] |
| 33 nM | 42 nM | 17 nM | CC#C/C(=N\OCCNC[C@@H]1COC(=O)N1)c1ccc2ncnc(Nc3ccc4c(cnn4Cc4cccc(F)c4)c3)c2c1 [VIII-191] |
